In one series the target is T1, hsst4 receptor (Homo sapiens, UniProt P31391).
T1 construct: expressed in transfected cells; host or cells: Chinese hamster lung fibroblast (CCL39) cells
Briefly: radioligand-binding displacement assay ([125I]LTT-SRIF28), receptor expressed in CCL39 cells. Particulars: for Kd: hsst4, [125I]LTT-SRIF28 displacement. The method, then:
The generated peptides are tested for their affinity to bind to human SRIF receptors expressed in Chinese hamster lung fibroblast (CCL39) cells. This is achieved in radioligand-binding assays, a displacement experiment in which the concentration of a substance is measured which is necessary for the replacement of 50% of a specifically bound radioligand ([^125I]LTT-SRIF28). Specific binding is measured as the total binding of receptor-specific radioligand minus the amount of radioligand bound in presence of unmarked SRIF-14 (100 nM, nonspecific binding).

Series [1] in a line: HT-logP o/w, high throughput assay based on artificial liquid membrane permeability. Particulars: octanol/water, read-out: HT LogP ohw. The series is classed as physicochemical. The text has this:
To be absorbed and transported by passive diffusion, drugs must be sufficiently lipophilic to penetrate the lipid cores of membranes, but not too lipophilic that they get retained and accumulated there. The lipophilictity of a compound is expressed by the octanol/water partition coefficient or distribution coefficient. A first approximation of substance polarity can either be given by computer assisted calculations giving Clog P values or by measurement of the partition coefficients in high-throughput assays (HT-log P o/w) (Faller et al., 2004; Wohnsland et al., 2001).
Octanol/water partition coefficients are measured in a high throughput assay based on artificial liquid membrane permeability. […] Still many approaches to calculate log P values are limited due to a lack of parameterization of certain fragments and fail with increasing molecular weight which implicates higher structural complexity. Similar problems and failures are observed in chromatographic determinations of log P: Peptides might undergo structural changes driven by interactions with the stationary phase. Decisive interactions between the stationary phase and the defolded analytes are therefore also based on the linear peptide sequence. For this reason measured HT-log P o/w values based on chromatographic assays employing stationary phases may lead to erroneous results.

A short description of series [2]: high throughput permeability (HT-Permeability, log Pe). The following applies: PAMPA, Pe in cm/s. The series is classed as physicochemical. A general note: The PAMPA barrier holds no transporters, so it reflects passive diffusion.
Series [3] can be described thus: high throughput solubility (HT-Solubility). It counts as physicochemical. The following applies: for water solubility (in words): see FIG. 10.
[4] abbreviates: pH 4, pH 4.0, read-out: HT-Permeability logPe pH 4.0 (converted).
[5] abbreviates: pH 1, pH 1.0, read-out: HT-Solubility pH 1.0.
Setting [6] is: pH 6.8, pH 6.8, read-out: HT-Solubility pH 6.8.
Setting [7] is: pH 8, pH 8.0, read-out: HT-Permeability logPe pH 8.0 (converted).
The mark [8] stands for this setting: pH 6.8, pH 6.8, read-out: HT-Permeability logPe pH 6.8 (converted).

This is an account of results in patent publication US20090305995A1, “AGONISTS AND ANTAGONISTS OF THE SOMATOSTATIN RECEPTOR” (Novartis AG, priority 2004, published 2009).

Converted amounts (≈) assume the structure as drawn. Where two headings read alike, the source gives them in different places.

T1 sequence (P31391 whole entry): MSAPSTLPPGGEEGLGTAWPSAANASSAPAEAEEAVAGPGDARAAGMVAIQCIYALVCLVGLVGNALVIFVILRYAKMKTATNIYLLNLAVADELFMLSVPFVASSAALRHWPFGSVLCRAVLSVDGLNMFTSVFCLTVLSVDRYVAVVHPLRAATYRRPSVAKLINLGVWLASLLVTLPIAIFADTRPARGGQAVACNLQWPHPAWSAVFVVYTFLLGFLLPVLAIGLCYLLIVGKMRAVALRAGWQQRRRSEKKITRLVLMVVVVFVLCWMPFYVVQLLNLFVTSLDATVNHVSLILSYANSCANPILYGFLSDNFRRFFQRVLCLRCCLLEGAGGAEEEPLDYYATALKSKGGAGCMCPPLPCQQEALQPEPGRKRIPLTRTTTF

A word on the Kd: it is the free concentration of one partner at which half of the binding sites on the other are occupied at equilibrium, for simple one-to-one binding. A high value points to lower affinity. Usually solubility stands for how much of the substance goes into solution per volume. Take `C[C@H]1OC(=O)C[C@H]1NC(=O)C[C@H](CCCCN)NC(=O)[C@@H](Cc1c[nH]c2ccccc12)NC(=O)C[C@H](Cc1ccccc1)NC(=O)C1CCCCC1` [Compound 5, Cyclohexanoyl-(S)-β^3-HPhe-(R)-Trp-(S)-β^3-HLys-(R)-4-amino-(R)-5-methyl-dihydro-furan-2-one]: at hsst4 receptor, the Kd was 1.2 µM. The logP in series [1] was 3.9. Also, in series [2] (setting [4]), the Papp was 0.1 ×10⁻⁶ cm/s. The values for the solubility in series [3] (setting [5]) and in series [3] (setting [6]) were 35.7 µg/mL (≈ 49.9 µM) and 14.3 µg/mL (≈ 20 µM), respectively.

In turn, `C[C@@H](O)[C@@H](CC(N)=O)NC(=O)C[C@H](CCCCN)NC(=O)[C@@H](Cc1c[nH]c2ccccc12)NC(=O)C[C@H](Cc1ccccc1)NC(=O)C12CC3CC(CC(C3)C1)C2` [Compound 18, Adamantoyl-(S)-β^3-HPhe-(R)-Trp-(S)-β^3-HLys-(R), (R)—HThr-NH2] displayed a Kd at hsst4 receptor of 6.17 µM. Also, in series [1], the logP is 3.2. Also, the Papp in series [2] (setting [4]) was 0.1 ×10⁻⁶ cm/s. The solubility was determined as 78.4 µg/mL (≈ 100 µM) in series [3] (setting [5]) and 15.7 µg/mL (≈ 20 µM) in series [3] (setting [6]).

Consider `C[C@H]1OC(=O)C[C@H]1NC(=O)C[C@H](CCCCN)NC(=O)[C@@H](Cc1cn(C)c2ccccc12)NC(=O)C[C@H](Cc1ccccc1)NC(=O)CCc1ccccc1` [Compound 19, Dihydrocinnemoyl-(S)-β^3-HPhe-(R)-1-Me-Trp-(S)-β^3-HLys-(R)-4-amino-(R)-5-methyl-dihydro-furan-2-one], for which, on hsst4 receptor, the affinity, expressed as Kd, was 0.708 µM. The logP in series [1] amounted to 3.7. Besides, the Papp in series [2] (setting [4]) is 0.1 ×10⁻⁶ cm/s. Further, the solubility in series [3] (setting [5]) and in series [3] (setting [6]) was 15 µg/mL (≈ 20 µM) in each case.

With `C[C@H]1OC(=O)C[C@H]1NC(=O)C[C@H](CCCCN)NC(=O)[C@@H](Cc1cn(C)c2ccccc12)NC(=O)C[C@H](Cc1ccccc1)NC(=O)C12CC3CC(CC(C3)C1)C2` [Compound 20, Adamantoyl-(S)-β^3-HPhe-(R)-1-Me-Trp-(S)-β^3-HLys-(R)-4-amino-(R)-5-methyl-dihydro-furan-2-one], binding on hsst4 receptor was put at a Kd of 2.95 µM. Moreover, in series [1], the logP was determined as 2.9. Further, the Papp in series [2] (setting [4]) was 0.1 ×10⁻⁶ cm/s. The solubility in series [3] (setting [5]) and in series [3] (setting [6]) was 15.6 µg/mL (≈ 20 µM) each time.

Regarding `CC(=O)N[C@H](CC(=O)N[C@H](Cc1cn(C)c2ccccc12)C(=O)N[C@@H](CCCCN)CC(=O)N[C@@H]1CC(=O)O[C@@H]1C)Cc1ccccc1` [Compound 21, Ac—(S)-β^3-HPhe-(R)-1-Me-Trp-(S)-β^3-HLys-(R)-4-amino-(R)-5-methyl-dihydro-furan-2-one], on hsst4 receptor, the dissociation constant Kd is 0.708 to 2.95 µM. The logP in series [1] came to 3.3. Also, the Papp in series [2] (setting [4]) was 0.1 ×10⁻⁶ cm/s. In addition, the solubility in series [3] (setting [5]) and in series [3] (setting [6]) was 13.2 µg/mL (≈ 20 µM) in each case.

As for `CCN(CC)C(=O)C[C@@H](NC(=O)C[C@H](CCCCN)NC(=O)[C@@H](Cc1c[nH]c2ccccc12)NC(=O)C[C@H](Cc1ccccc1)NC(C)=O)C(C)C` [Compound 22, Ac—(S)-β^3-HPhe-(R)-Trp-(S)-β^3-HLys-(R)-β^3-Leu-diethyl-amide], the Kd at hsst4 receptor was determined as 0.166 µM. Also, the logP in series [1] turned out to be 2.3. Further, in series [2] (setting [4]), the Papp was 0.1 ×10⁻⁶ cm/s. Further, the solubility in series [3] (setting [5]) and in series [3] (setting [6]) was 14.4 µg/mL (≈ 20.1 µM) in each case.

In the case of `CC(=O)N[C@H](CC(=O)N[C@H](Cc1c[nH]c2ccccc12)C(=O)N[C@@H](CCCCN)CC(=O)N[C@H](CC(=O)N(C)CCc1ccccc1)C(C)C)Cc1ccccc1` [Compound 25, Ac—(S)-β^3-HPhe-(R)-Trp-(S)-β^3-HLys-(R)-β^3-Leu-methyl-phenethyl-amide], on hsst4 receptor, the Kd was 0.115 µM. Further, in series [1], the logP was 3.3. Moreover, the Papp in series [2] (setting [4]) is 0.1 ×10⁻⁶ cm/s. Moreover, the solubility in series [3] (setting [5]) amounted to 78 µg/mL (≈ 100 µM); in series [3] (setting [6]), 15.6 µg/mL (≈ 20 µM).

`CC(=O)N[C@H](CC(=O)N[C@H](Cc1c[nH]c2ccccc12)C(=O)N[C@@H](CCCCN)CC(=O)NC1CCCC1)Cc1ccccc1` [Compound 30] displayed a Kd on hsst4 receptor of 0.062 µM.

Compound `NCCCC[C@@H](CC(=O)NC1CCCC1)NC(=O)[C@@H](Cc1c[nH]c2ccccc12)NC(=O)C[C@H](Cc1ccccc1)NC(=O)CCc1ccccc1` [Compound 32, Dihydrocinnemoyl-(S)-β^3-HPhe-(R)-Trp-(S)-β^3-HLys-cyclopentyl-amide] gave an equilibrium dissociation constant (Kd) at hsst4 receptor of 0.417 µM. Besides, the logP in series [1] was 4. Also, the Papp in series [2] (setting [4]) is 0.1 ×10⁻⁶ cm/s. The solubility in series [3] (setting [5]) amounted to 70.7 µg/mL (≈ 100 µM); in series [3] (setting [6]), 14.1 µg/mL (≈ 19.9 µM).

For `CCCCCNC(=O)C[C@H](CCCCN)NC(=O)[C@@H](Cc1c[nH]c2ccccc12)NC(=O)C[C@H](Cc1ccccc1)NC(C)=O` [Compound 44], the Kd at hsst4 receptor came out at 0.01 µM. Further, the logP in series [1] came out at 3.3. Moreover, the Papp in series [2] (setting [4]) was 6.31 ×10⁻⁶ cm/s; in series [2] (setting [7]), 25.1 ×10⁻⁶ cm/s. The solubility in series [3] (setting [5]) turned out to be 124 µg/mL (≈ 200 µM). The “HT-Solubility pH 6.8” value in series [3] (pH 6.8) was 0.0309 g 1-1. For the same compound, the “water solubility (in words)” value in series [3] is given as “medium to good”.

As for `CCC(=O)N(C)[C@H](CC(=O)N[C@H](Cc1c[nH]c2ccccc12)C(=O)N[C@@H](CCCCN)CC(=O)NC1CCCC1)Cc1ccccc1` [Compound 46, Propionyl-N-Me-(S)-β^3-HPhe-(R)-Trp-(S)-β^3-HLys-cyclopentyl-amide], the “binding affinity to hsst4 (in words)” value at hsst4 receptor is “lower binding affinities”. Moreover, in series [1], the logP came to 3.3. Moreover, the Papp in series [2] (setting [4]) was 1 ×10⁻⁶ cm/s. The solubility in series [3] (setting [5]) and in series [3] (setting [6]) was 129 µg/mL (≈ 200 µM) throughout.

`CCCCCN(C)C(=O)C[C@H](CCCCN)NC(=O)[C@@H](Cc1c[nH]c2ccccc12)NC(=O)C[C@H](Cc1ccccc1)NC(=O)CC` [Compound 48]: on hsst4 receptor, the Kd was found to be 0.007 µM. The logP in series [1] amounted to 3.4. Further, the Papp was 3.16 ×10⁻⁶ cm/s in series [2] (setting [4]), 1.58 ×10⁻⁶ cm/s in series [2] (setting [8]) and 3.98 ×10⁻⁶ cm/s in series [2] (setting [7]). Moreover, the solubility in series [3] (setting [5]) and in series [3] (setting [6]) was 129 µg/mL (≈ 200 µM) in each case. Also, in series [3], the “water solubility (in words)” value was “highest solubility values”.

`CCCCNC(=O)C[C@H](CCCCN)NC(=O)[C@@H](Cc1c[nH]c2ccccc12)NC(=O)C[C@H](Cc1ccccc1)NC(C)=O` [Compound 52, Ace-(S)-β^3-HPhe-(R)-Trp-(S)-β^3-HLys-butyl-amide] displayed a Kd on hsst4 receptor of 0.016 µM. The logP in series [1] is 3.1. Further, the Papp in series [2] (setting [4]) was 6.31 ×10⁻⁶ cm/s; in series [2] (setting [8]) it was 1.58 ×10⁻⁶ cm/s; in series [2] (setting [7]) it was 1 ×10⁻⁶ cm/s. Also, the solubility in series [3] (setting [5]) and in series [3] (setting [6]) was 121 µg/mL (≈ 200 µM) in each case. Besides, the “water solubility (in words)” value in series [3] is listed as “medium to good”.

For the compound `CCCC(=O)N[C@H](CC(=O)N[C@H](Cc1c[nH]c2ccccc12)C(=O)N[C@@H](CCCCN)CC(N)=O)Cc1ccccc1` [Compound 61, Butyroyl-(S)-β^3-HPhe-(R)-Trp-(S)-β^3-HLys-NH2], the logP in series [1] turned out to be 2.8. Moreover, the results for the Papp in series [2] (setting [4]) and in series [2] (setting [7]) were 1.26 ×10⁻⁶ cm/s and 1 ×10⁻⁶ cm/s, respectively. In addition, the solubility in series [3] (setting [5]) and in series [3] (setting [6]) was 115 µg/mL (≈ 200 µM) in each case.

Consider `NCCCC[C@@H](CC(=O)NC1CCCC1)NC(=O)[C@@H](Cc1c[nH]c2ccccc12)NC(=O)C[C@@H](N)Cc1ccccc1` [Compound 62, (S)-β^3-HPhe-(R)-Trp-(S)-β^3-HLys-cyclopentyl-amide], for which, in series [1], the logP was found to be 2.9. The values for the Papp in series [2] (setting [4]) and in series [2] (setting [7]) were 5.01 ×10⁻⁶ cm/s and 3.98 ×10⁻⁶ cm/s, respectively. The solubility in series [3] (setting [5]) and in series [3] (setting [6]) was 115 µg/mL (≈ 200 µM) each time.

Take `CCCCCCN(C)C(=O)C[C@H](CCCCN)NC(=O)[C@@H](Cc1c[nH]c2ccccc12)N(Cc1ccccc1)C(=O)C[C@H](Cc1ccccc1)NC(=O)CC` [Compound 68]: in series [1], the logP is 5.5. Moreover, the Papp in series [2] (setting [4]) was 0.1 ×10⁻⁶ cm/s. Further, the solubility in series [3] (setting [5]) is 75.1 µg/mL (≈ 100 µM); in series [3] (setting [6]), 15 µg/mL (≈ 20 µM). Moreover, in series [3], the “water solubility (in words)” value is “does not allow for good water solubilities”.
